Assay results published in patent publication US7041698B2, “Hepatitis C virus inhibitors” (Bristol-Myers Squibb Company, priority 2002, dated 2006).
pIC50: −log10 of the molar value. Read-outs that look alike come from different tables or passages of the source.

Biological target: T1, HCV NS3/4A protease complex (UniProt P27958, C1454S/C1711G, species not given)
T1 construct: fused on or other part: Three-lysine solubilising tail at the C-terminus of NS4A
Test: Recombinant HCV NS3/4A protease complex FRET peptide assay (strain not stated)
Type: biochemical
Source text: Recombinant HCV NS3/4A Protease Complex FRET Peptide Assay
The purpose of this in vitro assay was to measure the inhibition of HCV NS3 protease complexes, derived from the BMS, H77C or J416S strains, as described below, by compounds of the present invention. This assay provides an indication of how effective compounds of the present invention would be in inhibiting HCV proteolytic activity.
Serum from an HCV-infected patient was obtained from Dr. T. Wright, San Francisco Hospital. An engineered full-length cDNA (compliment deoxyribonucleic acid) template of the HCV genome (BMS strain) was constructed from DNA fragments obtained by reverse transcription-PCR (RT-PCR) of serum RNA (ribonucleic acid) and using primers selected on the basis of homology between other genotype 1a strains. From the determination of the entire genome sequence, a genotype 1a was assigned to the HCV isolate according to the classification of Simmonds et al. (See P Simmonds, K A Rose, S Graham, S W Chan, F McOmish, B C Dow, E A Follett, P L Yap and H Marsden, J. Clin. Microbiol., 31(6), 1493–1503 (1993)). […] The infectious clones, H77C (1a genotype) and J4L6S (1b genotype) were obtained from R. Purcell (NIH) and the sequences are published in Genbank (AAB67036, see Yanagi, M., Purcell, R. H., Emerson, S. U. and Bukh, J. Proc. Natl. Acad. Sci. U.S.A. 94(16),8738–8743 (1997); AF054247, see Yanagi, M., St Claire, M., Shapiro, M., Emerson, S. U., Purcell, R. H. and Bukh, J, Virology 244 (1), 161–172. (1998)).
The BMS, H77C and J4L6S strains were used for production of recombinant NS3/4A protease complexes. DNA encoding the recombinant HCV NS3/4A protease complex (amino acids 1027 to 1711) for these strains were manipulated as described by P. Gallinari et al. (see Gallinari P, Paolini C, Brennan D, Nardi C, Steinkuhler C, De Francesco R. Biochemistry. 38(17):5620–32, (1999)). Briefly, a three-lysine solubilizing tail was added at the 3′-end of the NS4A coding region. The cysteine in the P1 position of the NS4A-NS4B cleavage site (amino acid 1711) was changed to a glycine to avoid the proteolytic cleavage of the lysine tag. Furthermore, a cysteine to serine mutation was introduced by PCR at amino acid position 1454 to prevent the autolytic cleavage in the NS3 helicase domain. The variant DNA fragment was cloned in the pET21b bacterial expression vector (Novagen) and the NS3/4A complex was expressed in Escherichia. coli strain BL21 (DE3) (Invitrogen) following the protocol described by P. Gallinari et al. (see Gallinari P, Brennan D, Nardi C, Brunetti M, Tomei L, Steinkuhler C, De Francesco R., J. Virol. 72(8):6758–69 (1998)) with modifications. Briefly, NS3/4A expression was induced with 0.5 mM Isopropyl β-D-1-thiogalactopyranoside (IPTG) for 22 hr at 20° C. A typical fermentation (10L) yielded approximately 80 g of wet cell paste. The cells were resuspended in lysis buffer (10 mL/g) consisting of 25 mM N-(2-Hydroxyethyl)Piperazine-N′-(2-Ethane Sulfonic acid) (HEPES), pH7.5, 20% glycerol, 500 mM Sodium Chloride (NaCl), 0.5% Triton-X100, 1 ug/ml lysozyme, 5 mM Magnesium Chloride (MgCl2), lug/ml Dnasel, 5 mM β-Mercaptoethanol (βME), Protease inhibitor—Ethylenediamine Tetraacetic acid (EDTA) free (Roche), homogenized and incubated for 20 mins at 4° C. The homogenate was sonicated and clarified by ultra-centrifugation at 235000 g for 1 hr at 4° C. Imidazole was added to the supernatant to a final concentration of 15 mM and the pH adjusted to 8.0. The crude protein extract was loaded on a Nickel-Nitrilotriacetic acid (Ni-NTA) column pre-equilibrated with buffer B (25 mM HEPES, pH 8.0, 20% glycerol, 500 mM NaCl, 0.5% Triton-X100, 15 mM imidazole, 5 mM βME). The sample was loaded at a flow rate of 1 mL/min. The column was washed with 15 column volumes of buffer C (same as buffer B except with 0.2% Triton-X100). The protein was eluted with 5 column volumes of buffer D (same as buffer C except with 200 mM Imidazole). […]

[1] = HCV NS3/4A protease enzyme assay, read-out: IC50 range

| SMILES | pIC50 [1] | pIC50 (read-out: IC50 range, HCV NS3/4A protease enzyme assay) |
| --- | --- | --- |
| C=CC1C[C@]1(NC(=O)[C@@H]1C[C@@H](OC(=O)Nc2c(CC)cccc2C(C)C)CN1C(=O)[C@@H](NC(=O)OC(C)(C)C)C(C)(C)C)C(=O)NS(=O)(=O)C1CC1 (stereo partly drawn) [Compound 22, BocNH-P3(t-BuGly)-P2(Hyp(O—CO(NH—(2-ethyl-6-isopropyl-phenyl))))-P1(1R,2S VinylAcca)—CONHSO2Cyclopropane] | 5.00 to 6.00 |  |
| C=CC1C[C@]1(NC(=O)[C@@H]1C[C@@H](OC(=O)Nc2c(C)cccc2C)CN1C(=O)[C@@H](NC(=O)OC(C)(C)C)C(C)(C)C)C(=O)NS(=O)(=O)C1CC1 (stereo partly drawn) [Compound 58, BocNH-P3(t-BuGly)-P2(Hyp(O—CO(NH—(2,6-dimethyl-phenyl))))-P1(1R,2S VinylAcca)—CONHSO2Cyclopropane] | 5.00 to 6.00 |  |
| C=CC1C[C@]1(NC(=O)[C@@H]1C[C@@H](OC(=O)Nc2c(C)cccc2CC)CN1C(=O)[C@@H](NC(=O)OC(C)(C)C)C(C)(C)C)C(=O)NS(=O)(=O)C1CC1 (stereo partly drawn) [Compound 61, BocNH-P3(t-BuGly)-P2(Hyp(O—CO(NH—(2-ethyl-6-methyl))))-P1(1R,2S VinylAcca)—CONHSO2Cyclopropane] | 5.00 to 6.00 |  |
| C=CC1C[C@]1(NC(=O)[C@@H]1C[C@@H](OC(=O)Nc2c(CC)cccc2CC)CN1C(=O)[C@@H](NC(=O)OC(C)(C)C)C(C)(C)C)C(=O)NS(=O)(=O)C1CC1 (stereo partly drawn) [Compound 62, BocNH-P3(t-BuGly)-P2(Hyp(O—CO(NH—(2,6-diethyl-phenyl))))-P1(1R,2S VinylAcca)—CONHSO2Cyclopropane] |  | 5.00 to 6.00 |
| C=CC1C[C@]1(NC(=O)[C@@H]1C[C@@H](OC(=O)Nc2c(C)nn(C)c2C)CN1C(=O)[C@@H](NC(=O)OC(C)(C)C)C(C)(C)C)C(=O)NS(=O)(=O)C1CC1 (stereo partly drawn) [Compound 68, BocNH-P3(t-BuGly)-P2(Hyp(O—CO(NH—(1,3,5-Trimethyl-pyrazol-4-yl))))-P1(1R,2S VinylAcca)—CONHSO2Cyclopropane] | 5.00 to 6.00 |  |
| C=CC1CC1(NC(=O)[C@@H]1C[C@@H](OC(=O)Nc2c(F)cccc2F)CN1C(=O)[C@@H](NC(=O)OC(C)(C)C)C(C)(C)C)C(=O)O (stereo partly drawn) [Compound 102, BocNH-P3(t-BuGly)-P2(Hyp(O—CO(NH—(2,6-difluoro-phenyl))))-P1((1R,2S)/(1S,2R) VinylAcca)—CO2H] | < 5.00 |  |
| C=CC1CC1(NC(=O)[C@@H]1C[C@@H](OC(=O)NCc2ccccc2C)CN1C(=O)[C@@H](NC(=O)OC(C)(C)C)C(C)(C)C)C(=O)O (stereo partly drawn) [Compound 103, BocNH-P3(t-BuGly)-P2(Hyp(O—CO(NH—(2-methyl-benzyl))))-P1((1R,2S)/(1S,2R) VinylAcca)—CO2H] | < 5.00 |  |
| C=CC1CC1(NC(=O)[C@@H]1C[C@@H](OC(=O)N[C@H](C(=O)OC)[C@@H](C)CC)CN1C(=O)[C@@H](NC(=O)OC(C)(C)C)C(C)(C)C)C(=O)O (stereo partly drawn) [Compound 104, BocNH-P3(t-BuGly)-P2(Hyp(O—CO(NH-2-[(2S,3S)-3-methylvaleric acid methyl ester])))-P1((1R,2S)/(1S,2R) VinylAcca)—CO2H] | 5.00 to 6.00 |  |
| C=CC1CC1(NC(=O)[C@@H]1C[C@@H](OC(=O)NC(C)c2cccc3ccccc23)CN1C(=O)[C@@H](NC(=O)OC(C)(C)C)C(C)(C)C)C(=O)O (stereo partly drawn) [Compound 105, BocNH-P3(t-BuGly)-P2(Hyp(O—CO(NH-1-(R)-1-naphthylethyl)))-P1((1R,2S)/(1S,2R) VinylAcca)—CO2H] | < 5.00 |  |
| C=CC1CC1(NC(=O)[C@@H]1C[C@@H](OC(=O)Nc2ccccc2)CN1C(=O)[C@@H](NC(=O)OC(C)(C)C)C(C)(C)C)C(=O)O (stereo partly drawn) [Compound 106, BocNH-P3(t-BuGly)-P2(Hyp(O—CO(NH-phenyl)))-P1((1R,2S)/(1S,2R) VinylAcca)—CO2H] | < 5.00 |  |
| C=CC1CC1(NC(=O)[C@@H]1C[C@@H](OC(=O)Nc2cc(C)ccc2F)CN1C(=O)[C@@H](NC(=O)OC(C)(C)C)C(C)(C)C)C(=O)O (stereo partly shown) [Compound 107] | < 5.00 |  |
| C=CC1CC1(NC(=O)[C@@H]1C[C@@H](OC(=O)NCCc2cccs2)CN1C(=O)[C@@H](NC(=O)OC(C)(C)C)C(C)(C)C)C(=O)O (stereo partly drawn) [Compound 108, BocNH-P3(t-BuGly)-P2(Hyp(O—CO(NH—(2-thiophen-2-yl-ethyl))))-P1((1R,2S)/(1S,2R) VinylAcca)—CO2H] | < 5.00 |  |
| C=CC1CC1(NC(=O)[C@@H]1C[C@@H](OC(=O)Nc2cccc(C(F)(F)F)c2)CN1C(=O)[C@@H](NC(=O)OC(C)(C)C)C(C)(C)C)C(=O)O (stereo partly drawn) [Compound 109, BocNH-P3(t-BuGly)-P2(Hyp(O—CO(NH—(3-trifluoromethyl-phenyl))))-P1((1R,2S)/(1S,2R) VinylAcca)—CO2H] | < 5.00 |  |
